Laboratory results taken from US12187723B2 (BRISTOL-MYERS SQUIBB COMPANY, priority 2019, dated 2025).
pIC50: −log10 of the molar value.

How the values were obtained:
human TLR7 = target: T1, human TLR7 (Homo sapiens, UniProt Q9NYK1); test: TLR7 inhibition reporter assay (HEK-Blue SEAP); format: cell-based; conditions: HEK-Blue cells overexpressing human TLR7, gardiquimod 7.5 μM, 22 hour incubation
T1 construct: host or cells: HEK-Blue cells
T1 sequence (Q9NYK1 27-1049): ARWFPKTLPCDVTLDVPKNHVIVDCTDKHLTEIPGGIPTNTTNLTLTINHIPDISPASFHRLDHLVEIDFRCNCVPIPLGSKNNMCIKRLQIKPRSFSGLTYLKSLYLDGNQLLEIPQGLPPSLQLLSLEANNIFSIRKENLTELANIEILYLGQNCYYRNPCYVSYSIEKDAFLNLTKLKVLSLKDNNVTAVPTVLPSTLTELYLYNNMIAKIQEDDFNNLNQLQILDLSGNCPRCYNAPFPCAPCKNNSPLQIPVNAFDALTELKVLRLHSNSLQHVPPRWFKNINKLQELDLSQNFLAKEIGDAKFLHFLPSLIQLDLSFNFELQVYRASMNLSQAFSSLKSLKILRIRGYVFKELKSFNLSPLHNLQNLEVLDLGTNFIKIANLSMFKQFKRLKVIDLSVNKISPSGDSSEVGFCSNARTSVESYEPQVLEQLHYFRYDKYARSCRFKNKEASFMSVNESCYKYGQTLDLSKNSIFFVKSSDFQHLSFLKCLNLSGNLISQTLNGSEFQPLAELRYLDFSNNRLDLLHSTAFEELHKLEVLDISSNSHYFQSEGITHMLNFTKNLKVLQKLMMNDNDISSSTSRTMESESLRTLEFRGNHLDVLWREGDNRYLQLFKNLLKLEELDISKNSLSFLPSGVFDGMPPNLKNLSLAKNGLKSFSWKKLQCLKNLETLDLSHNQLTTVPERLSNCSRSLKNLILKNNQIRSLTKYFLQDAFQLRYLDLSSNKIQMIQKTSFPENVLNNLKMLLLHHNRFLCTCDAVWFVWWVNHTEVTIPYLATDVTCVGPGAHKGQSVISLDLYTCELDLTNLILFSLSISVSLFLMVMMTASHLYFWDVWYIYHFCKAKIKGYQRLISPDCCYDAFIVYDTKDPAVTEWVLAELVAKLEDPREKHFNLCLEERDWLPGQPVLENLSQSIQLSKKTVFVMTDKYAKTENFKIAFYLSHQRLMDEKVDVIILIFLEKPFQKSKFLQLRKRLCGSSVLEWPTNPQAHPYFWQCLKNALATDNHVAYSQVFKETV
Method in brief: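 HEK-Blue reporter cells (15,000/well TLR7, 20,000 TLR8) exposed to compound over 0.05 nM–50 μM, agonist-stimulated (R848 for TLR8, gardiquimod for TLR7), 22 h at 37 °C, 5% CO2. SEAP read with HEK-Blue Detection; % inhibition relative to agonist-plus-DMSO and known-inhibitor controls.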

human TLR8 = target: T2, human TLR8 (Homo sapiens, UniProt Q9NR97); test: TLR8 inhibition reporter assay (HEK-Blue SEAP); format: cell-based; conditions: HEK-Blue cells overexpressing human TLR8, R848 15.9 μM, 22 hour incubation
T2 construct: host or cells: HEK-Blue cells
T2 sequence (Q9NR97 27-1041): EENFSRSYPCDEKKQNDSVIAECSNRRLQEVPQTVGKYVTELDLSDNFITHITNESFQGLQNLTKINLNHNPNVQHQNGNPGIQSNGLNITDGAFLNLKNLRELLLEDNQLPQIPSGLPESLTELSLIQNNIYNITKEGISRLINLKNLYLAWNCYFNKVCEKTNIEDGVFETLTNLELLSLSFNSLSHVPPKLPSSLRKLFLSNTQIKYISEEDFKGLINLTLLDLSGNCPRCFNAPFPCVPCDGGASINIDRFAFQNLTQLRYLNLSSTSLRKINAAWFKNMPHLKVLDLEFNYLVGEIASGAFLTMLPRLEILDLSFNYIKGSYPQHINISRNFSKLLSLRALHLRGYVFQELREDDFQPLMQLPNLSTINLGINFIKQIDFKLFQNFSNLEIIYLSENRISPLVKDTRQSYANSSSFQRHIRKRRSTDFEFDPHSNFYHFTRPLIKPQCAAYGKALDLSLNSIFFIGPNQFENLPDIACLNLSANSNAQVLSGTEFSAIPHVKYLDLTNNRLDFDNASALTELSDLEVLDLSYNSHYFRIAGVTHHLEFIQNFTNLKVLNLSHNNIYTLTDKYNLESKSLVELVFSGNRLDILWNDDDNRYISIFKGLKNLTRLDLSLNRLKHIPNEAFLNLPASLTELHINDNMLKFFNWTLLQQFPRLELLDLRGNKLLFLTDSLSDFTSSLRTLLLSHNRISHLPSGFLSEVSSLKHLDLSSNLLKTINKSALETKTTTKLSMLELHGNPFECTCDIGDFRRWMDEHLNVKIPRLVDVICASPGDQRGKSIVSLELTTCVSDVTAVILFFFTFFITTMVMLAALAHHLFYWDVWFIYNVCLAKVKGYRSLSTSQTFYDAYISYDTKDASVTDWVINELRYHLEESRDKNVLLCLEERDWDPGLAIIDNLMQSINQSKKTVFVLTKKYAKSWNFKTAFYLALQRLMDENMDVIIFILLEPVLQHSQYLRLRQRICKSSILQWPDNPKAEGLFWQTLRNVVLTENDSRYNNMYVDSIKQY
Method in brief: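 Agonists used: gardiquimod 7.5 μM (TLR7), R848 15.9 μM (TLR8), ODN2006 5 nM (TLR9), added after 30 min room-temperature compound pre-treatment (0.05 nM–50 μM) of receptor-overexpressing HEK-Blue cells. SEAP reporter (NF-κB/AP-1 driven) read after 22 h at 37 °C; inhibition scaled between agonist+DMSO and reference-inhibitor wells.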

Structure (SMILES) | pIC50 (human TLR7) | pIC50 (human TLR8)
CCCN(CCC)[C@H]1CC[C@@H](n2c(=O)[nH]c3cc(-c4cn5ncnc5c(C)c4C)c(C(C)C)cc32)CC1 [Example 199, 5-(7,8-dimethyl-[1,2,4]triazolo[1,5-a]pyridin-6-yl)-1-((1s,4s)-4-(dipropylamino)cyclohexyl)-6-isopropyl-1,3-dihydro-2H-benzo[d]imidazol-2-one] | 8.30 | 9.28
CCc1cc2c(cc1-c1cc(OC)c3ncnn3c1)[nH]c(=O)n2[C@@H]1CCCN(C2CCOC2)C1 (stereo partly drawn) [Example 212, 6-ethyl-5-(8-methoxy-[1,2,4]triazolo[1,5-a]pyridin-6-yl)-1-((3R)-1-(tetrahydrofuran-3-yl)piperidin-3-yl)-1,3-dihydro-2H-benzo[d]imidazol-2-one] | 7.60 | 8.36
COc1cc(-c2cc3[nH]c(=O)n([C@H]4CC[C@H](NC5COC5)CC4)c3cc2C(C)C)cn2ncnc12 [Example 201, 6-isopropyl-5-(8-methoxy-[1,2,4]triazolo[1,5-a]pyridin-6-yl)-1-((1r,4r)-4-(oxetan-3-ylamino)cyclohexyl)-1,3-dihydro-2H-benzo[d]imidazol-2-one] | 8.68 | 8.81
CCc1cc2c(cc1-c1cc(OC)c3ncnn3c1)[nH]c(=O)n2[C@H]1CC[C@@H](N(CC)CC)CC1 [Example 169, 1-((1s,4s)-4-(diethylamino)cyclohexyl)-6-ethyl-5-(8-methoxy-[1,2,4]triazolo[1,5-a]pyridin-6-yl)-1,3-dihydro-2H-benzo[d]imidazol-2-one] | 8.74 | 9.13
CCC(CC)CN[C@H]1CC[C@@H](n2c(=O)[nH]c3cc(-c4cc(OC)c5ncnn5c4)c(C(C)C)cc32)CC1 [Example 194] | 8.64 | 9.96
CCN1CCC[C@H](n2c(=O)[nH]c3cc(-c4cc(C)c5ncnn5c4)c(C)cc32)C1 [Example 12, (S)-1-(1-ethylpiperidin-3-yl)-6-methyl-5-(8-methyl-[1,2,4]triazolo[1,5-a]pyridin-6-yl)-1,3-dihydro-2H-benzo[d]imidazol-2-one] | 6.84 | 7.03
CCc1cc2c(cc1-c1cc(OC)c3ncnn3c1)[nH]c(=O)n2[C@@H]1CCCN(C2CCOC2)C1 (stereo partly drawn) [Example 213, 6-ethyl-5-(8-methoxy-[1,2,4]triazolo[1,5-a]pyridin-6-yl)-1-((3R)-1-(tetrahydrofuran-3-yl)piperidin-3-yl)-1,3-dihydro-2H-benzo[d]imidazol-2-one] | 7.43 | 8.34
Cc1c(-c2cc3[nH]c(=O)n([C@H]4CC[C@@H](NCC5CCOCC5)CC4)c3cc2C(C)C)cn2ncnc2c1C [Example 200, 5-(7,8-dimethyl-[1,2,4]triazolo[1,5-a]pyridin-6-yl)-6-isopropyl-1-((1s,4s)-4-(((tetrahydro-2H-pyran-4-yl)methyl)amino)cyclohexyl)-1,3-dihydro-2H-benzo[d]imidazol-2-one] | 8.04 | 9.89
COc1cc(-c2cc3[nH]c(=O)n([C@H]4CC[C@@H](NC5CCOCC5)CC4)c3cc2C(C)C)cn2ncnc12 [Example 193, 6-isopropyl-5-(8-methoxy-[1,2,4]triazolo[1,5-a]pyridin-6-yl)-1-((1s,4s)-4-((tetrahydro-2H-pyran-4-yl)amino)cyclohexyl)-1,3-dihydro-2H-benzo[d]imidazol-2-one] | 8.65 | 9.32
COc1cc(-c2cc3[nH]c(=O)n([C@H]4CC[C@H](NC5CCN(C(C)C)CC5)CC4)c3cc2C(C)C)cn2ncnc12 [Example 207, 6-isopropyl-1-((1r,4r)-4-((1-isopropylpiperidin-4-yl)amino)cyclohexyl)-5-(8-methoxy-[1,2,4]triazolo[1,5-a]pyridin-6-yl)-1,3-dihydro-2H-benzo[d]imidazol-2-one] | 7.62 | 8.38
CCCN[C@H]1CC[C@@H](n2c(=O)[nH]c3cc(-c4cc(OC)c5ncnn5c4)c(C(C)C)cc32)CC1 [Example 195, 6-isopropyl-5-(8-methoxy-[1,2,4]triazolo[1,5-a]pyridin-6-yl)-1-((1 s,4s)-4-(propylamino)cyclohexyl)-1,3-dihydro-2H-benzo[d]imidazol-2-one] | 8.86 | 9.57

Results, then the compound that gave them:

pIC50 (human TLR7) | pIC50 (human TLR8) | Structure (SMILES)
8.10 | 8.47 | COCCN1CCC[C@@H](n2c(=O)[nH]c3cc(-c4cc(OC)c5ncnn5c4)c(C(C)C)cc32)C1 (single isomer, unassigned) [Example 225]
8.82 | 9.41 | COc1cc(-c2cc3[nH]c(=O)n(C4CCC(N5CC6(CCOCC6)C5)CC4)c3cc2C(C)C)cn2ncnc12 (single isomer, unassigned) [Example 235, 1-(4-(7-oxa-2-azaspiro[3.5]nonan-2-yl)cyclohexyl)-6-isopropyl-5-(8-methoxy-[1,2,4]triazolo[1,5-a]pyridin-6-yl)-1,3-dihydro-2H-benzo[d]imidazol-2-one]
6.92 | 7.09 | COc1cc(-c2cc3[nH]c(=O)n(C4CCC(N5CCNC(=O)C5)CC4)c3cc2C(C)C)cn2ncnc12 (stereo not shown) [Example 243, 6-isopropyl-5-(8-methoxy-[1,2,4]triazolo[1,5-a]pyridin-6-yl)-1-(4-(3-oxopiperazin-1-yl)cyclohexyl)-1,3-dihydro-2H-benzo[d]imidazol-2-one]
7.08 | 7.59 | COc1cc(-c2cc3[nH]c(=O)n(C4CCN(CCS(C)(=O)=O)CC4)c3cc2C(C)C)cn2ncnc12 [Example 224, 6-isopropyl-5-(8-methoxy-[1,2,4]triazolo[1,5-a]pyridin-6-yl)-1-(1-(2-(methylsulfonyl)ethyl)piperidin-4-yl)-1,3-dihydro-2H-benzo[d]imidazol-2-one]
7.22 | 8.26 | COc1c(C)c(-c2cc3[nH]c(=O)n(C4CCC(N5CCC(F)(F)CC5)CC4)c3cc2C(C)C)cn2ncnc12 (single isomer, unassigned) [Example 230, 1-(4-(4,4-difluoropiperidin-1-yl)cyclohexyl)-6-isopropyl-5-(8-methoxy-7-methyl-[1,2,4]triazolo[1,5-a]pyridin-6-yl)-1,3-dihydro-2H-benzo[d]imidazol-2-one]
6.86 | 7.27 | COc1cc(-c2cc3[nH]c(=O)n([C@H]4CCCN(CCS(C)(=O)=O)C4)c3cc2C(C)C)cn2ncnc12 [Example 222, (S)-6-isopropyl-5-(8-methoxy-[1,2,4]triazolo[1,5-a]pyridin-6-yl)-1-(1-(2-(methylsulfonyl)ethyl)piperidin-3-yl)-1,3-dihydro-2H-benzo[d]imidazol-2-one]
